What is called Ki is a measure of affinity in units of concentration, obtained from inhibition or displacement. The term pKi denotes −log10 of the Ki, conventionally taken in molar units. A lower pKi goes with a large Ki.

In the assay the target is T1, human CB2 (Homo sapiens, UniProt P34972).
T1 construct: expressed in transfected cells; host or cells: HEK-293T (transient transfection, membrane preparation)
T1 sequence (P34972 whole entry): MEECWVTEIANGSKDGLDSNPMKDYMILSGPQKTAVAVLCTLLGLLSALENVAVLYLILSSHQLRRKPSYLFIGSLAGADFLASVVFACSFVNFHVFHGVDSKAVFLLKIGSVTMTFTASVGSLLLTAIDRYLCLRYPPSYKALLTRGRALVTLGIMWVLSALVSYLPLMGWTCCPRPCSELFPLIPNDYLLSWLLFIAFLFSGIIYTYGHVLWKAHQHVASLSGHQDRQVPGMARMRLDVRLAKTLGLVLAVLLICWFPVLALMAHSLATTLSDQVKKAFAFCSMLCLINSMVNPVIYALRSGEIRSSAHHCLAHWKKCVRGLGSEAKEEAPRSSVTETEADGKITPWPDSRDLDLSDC
In words: CB2 receptor binding assay, block of [3H]-CP 55,940 binding. The following applies: membranes of HEK-293T cells transfected with human CB2 cDNA; 1.5 nM [3H]-CP 55,940. As to the method:
Membrane preparation—HEK-293T cells were cultured according to ATCC (Manassas, Va.) guidelines and transfected with human CB2 cDNA (SEQ ID NO:1) (Genbank X74328), operably linked to the SV40 promoter, using Polyfect (Qiagen, Valencia, Calif.) or Fugene (Roche, Nutley, N.J.) according to manufacturer's instructions. 48 h after transfection cells were harvested in ice cold membrane buffer (20 mM HEPES, 6 mM MgCl2, 1 mM EDTA, pH 7.2) using a cell scraper. Cells were transferred to a nitrogen cavitation chamber and a pressure of […] was applied for 30 min. The pressure was released and the cell debris was collected and centrifuged at 1000 g at 4° C. for 10 min. The supernatant was collected and the spin was repeated until the supernatant was free of precipitate. Membranes were then pelleted by centrifugation at 12.000 g at 4° C. for 20 min. Membranes were resuspended in an appropriate amount of membrane buffer. The membrane concentration was determined using a BioRad (Hercules, Calif.) protein assay dye reagent according to manufacturer's instructions. Membranes were diluted to 1 mg/ml and aliquots snap-frozen in liquid nitrogen and store at −80° C.
Binding assay—0.5-10 ng of membranes were incubated in binding buffer (50 mM Tris, 0.5 mM EDTA, 0.1% BSA, pH 7.4) in the presence of 1.5 nM radioligand ([^3H]-CP 55,940 Perkin Elmer) and varying concentrations of ligands (total volume 100 μL in a 96 well plate). Membranes were filtered onto a 96 well GF/B filterplate (Packard Bioscience, Shelton, Conn.) and washed with […] wash buffer (25 mM HEPES, 1 mM CaCl2, 5 mM MgCl2, 0.25M NaCl) using a Filtermate 196 Harvester (Packard Instruments, Downers Grove, Ill.). The filter plates were dried under a heat lamp before addition of 50 μL of scintillation fluid to each well (Microscint 20, Packard, Shelton, Conn.). Plates were counted on a Topcount NXT (Packard, Shelton, Conn.).
Data Analysis—Graphs were plotted and KD values were determined by nonlinear regression analysis using Prism software (GraphPad version 4.0, San Diego, Calif., USA).
`COc1cccc2nc(-c3c(C)cc(OCC[18F])cc3C)c(Nc3ccc4c(c3)OCCO4)n12` [CR-132] gave a Ki of 5.01 nM.
In turn, `Cc1cc(O)cc(C)c1-c1nc2cccc(OCCF)n2c1Nc1ccc2c(c1)OCCO2` [CR-27] returned a pKi of 7.9.
`c1ccc(-c2nc3ncccn3c2Nc2ccc3c(c2)OCCO3)nc1` [CR-115] registered a pKi of 6.2.
The same measure, in the same setting: with `COc1ccc2nc(-c3c(F)cccc3Cl)c(Nc3ccc4c(c3)OCCO4)n2c1Cl` [CR-44] the figure was 7.4.
Still for that read-out and setting: with `Cc1ccc2nc(-c3c(F)cccc3F)c(Nc3ccc4c(c3)OCCO4)n2c1` [CR-48] the figure was 7.4.
In the case of `COc1ccnc2nc(-c3c(C)cc(O)cc3C)c(Nc3ccc4c(c3)OCCO4)n12` [CR-108], the pKi is given as 6.3.
Still for that read-out and setting: the same measure for `COc1cccc2nc(-c3c(F)cccc3Cl)c(NC(=O)Nc3ccc4c(c3)OCCO4)n12` [CR-109]: 6.3.
Still for that read-out and setting: with `COc1cccc2nc(-c3c(Cl)cc(O)cc3Cl)c(Nc3ccc4c(c3)OCCO4)n12` [CR-23] the figure was 8.2; with `Fc1cccc(Cl)c1-c1nc2ncccn2c1Nc1ccc2c(c1)OCCO2` [CR-46], 7.4.
On the same count and under the same terms, the same measure for `Fc1cccc(F)c1-c1nc2ccccn2c1Nc1ccc2c(c1)OCCO2` [CR-56]: 7.3.
`COc1ccc2nc(-c3c(F)cccc3Cl)c(Nc3ccc4c(c3)OCCO4)n2c1` [CR-13] returned a pKi of 8.7.
Still for that read-out and setting: with `COc1cccc2nc(-c3c(Cl)ccc(OCF)c3F)c(Nc3ccc4c(c3)OCCO4)n12` [CR-10] the figure was 9.2; with `Cc1cncc2nc(-c3c(F)cccc3Cl)c(Nc3ccc4c(c3)OCCO4)n12` [CR-58], 7.2; with `Cc1ccc2nc(-c3c(C)cccc3C)c(Nc3ccc4c(c3)OCCO4)n2c1` [CR-49], 7.3.
As to `COc1cccc2nc(-c3c(F)cc(OCCF)cc3F)c(Nc3ccc4c(c3)OCCO4)n12` [CR-17], the pKi was 8.5.
`COc1ccnc2nc(-c3c(C)cc(OCCF)cc3C)c(Nc3ccc4c(c3)OCCO4)n12` [CR-73] yielded a pKi of 6.8.
Compound `COc1ccc2nc(-c3c(F)cccc3Cl)c(Nc3ccc4c(c3)OCCO4)n2c1OC` [CR-67] yielded a pKi of 6.9.
Still for that read-out and setting: the same measure for `Cc1cccc2nc(-c3ccc(OCCF)c(O)c3)c(Nc3ccc4c(c3)OCCO4)n12` [CR-69]: 6.8.
Same read-out and setting: the same measure for `COc1cccc2nc(-c3c(C)cncc3C)c(Nc3ccc4c(c3)OCCO4)n12` [CR-139]: 8.2; for `COc1cccc2nc(-c3c(F)ccc(O)c3Cl)c(Nc3ccc4c(c3)OCCO4)n12` [CR-2]: 8.6.
Same read-out and setting: the same measure for `COc1cccc(F)c1-c1nc2ncccn2c1Nc1ccc2c(c1)OCCO2` [CR-112]: 6.3; for `COc1cc(-c2nc3ccccn3c2Nc2ccc3c(c2)OCCO3)ccc1O` [CR-71]: 6.8.
Consider `Cc1cccc(C)c1-c1nc2ccccn2c1Nc1ccc2c(c1)OCCO2` [CR-51], for which the pKi is given as 7.3.
Still for that read-out and setting: with `Cc1cccn2c(Nc3ccc4c(c3)OCCO4)c(-c3c(F)cccc3Cl)nc12` [CR-50] the figure was 7.3; with `COc1cccc2nc(-c3c(F)cccc3Cl)c(NC(=O)c3ccc4c(c3)OCCO4)n12` [CR-117], 5.7.
Same read-out and setting: with `Cc1cccc2nc(-c3ncccc3F)c(Nc3ccc4c(c3)OCCO4)n12` [CR-57] the figure was 7.2; with `COc1cc(-c2nc3ccc(Cl)cn3c2Nc2ccc3c(c2)OCCO3)ccc1O` [CR-77], 6.7; with `COc1cc(O)ccc1-c1nc2ccc(C)cn2c1Nc1ccc2c(c1)OCCO2` [CR-85], 6.7.
As for `OCc1ccn2c(Nc3ccc4c(c3)OCCO4)c(-c3c(F)cccc3Cl)nc2c1` [CR-102], the pKi is 6.4.
On the same count and under the same terms, the same measure for `COc1cccc2nc(-c3c(F)ccc(O)c3F)c(Nc3ccc4c(c3)OCCO4)n12` [CR-4]: 8.5.
Regarding `Cc1ccn2c(Nc3ccc4c(c3)OCCO4)c(-c3ncccc3F)nc2c1` [CR-106], the pKi is reported as 5.7.
The same measure, in the same setting: with `COc1cc(O)ccc1-c1nc2ccncn2c1Nc1ccc2c(c1)OCCO2` [CR-120] the figure was 5.9.
As to `COc1cccc2nc(-c3c(C)cc(OCCO)cc3C)c(Nc3ccc4c(c3)OCCO4)n12` [CR-5], the pKi was 8.3.
In turn, `Fc1cncc(F)c1-c1nc2cccc(OCC[18F])n2c1Nc1ccc2c(c1)OCCO2` [CR-135] gave a Ki of 39.8 nM.
`FCCOc1cccc2nc(-c3c(F)cncc3F)c(Nc3ccc4c(c3)OCCO4)n12` [CR-7] had a pKi of 7.4.
`Cc1cccc2nc(-c3c(F)cc(O)cc3F)c(Nc3ccc4c(c3)OCCO4)n12` [CR-28] had a pKi of 7.9.
The compound `COc1cc(-c2nc3c(C)cccn3c2Nc2ccc3c(c2)OCCO3)ccc1O` [CR-72] yielded a pKi of 6.8.
On the same count and under the same terms, the same measure for `COc1cc(-c2nc3cccc(C)n3c2Nc2ccc3c(c2)OCCO3)ccc1OCCF` [CR-88]: 6.6.
The same measure, in the same setting: with `COc1cc(O)ccc1-c1nc2c(C)cccn2c1Nc1ccc2c(c1)OCCO2` [CR-105] the figure was 6.4; with `Cc1cccc2nc(-c3c(F)cccc3Cl)c(N(C)c3ccc4c(c3)OCCO4)n12` [CR-124], 6.0; with `CCOc1cccc2nc(-c3c(F)cccc3Cl)c(Nc3ccc4c(c3)OCCO4)n12` [CR-24], 8.1.
On the same count and under the same terms, with `COc1cccc2nc(-c3c(F)ccc(OCF)c3Cl)c(Nc3ccc4c(c3)OCCO4)n12` [CR-11] the figure was 9.1; with `Cc1ccn2c(Nc3ccc4c(c3)OCCO4)c(-c3cccc(F)n3)nc2c1` [CR-99], 6.5; with `Cc1cccc2nc(-c3c(F)cccc3Cl)c(Nc3ccc4c(c3)OCCO4)n12` [CR-25], 8.0.
For `Fc1cccc(Cl)c1-c1nc2cnccn2c1Nc1ccc2c(c1)OCCO2` [CR-103], the pKi came to 6.4.
Same read-out and setting: the same measure for `COc1cc(-c2nc3ccc(C)cn3c2Nc2ccc3c(c2)OCCO3)ccc1O` [CR-81]: 6.7.
The same measure, in the same setting: with `COc1cccc2nc(-c3c(F)ccc(OCCF)c3Cl)c(Nc3ccc4c(c3)OCCO4)n12` [CR-9] the figure was 9.3; with `COc1cccc(OC)c1-c1nc2cnccn2c1Nc1ccc2c(c1)OCCO2` [CR-118], 5.8.
Still for that read-out and setting: the same measure for `Cc1cn2c(Nc3ccc4c(c3)OCCO4)c(-c3c(F)cccc3Cl)nc2cn1` [CR-80]: 6.7; for `FCCOc1cncc(F)c1-c1nc2cccc(OCCF)n2c1Nc1ccc2c(c1)OCCO2` [CR-8]: 6.6; for `Fc1ncccc1-c1nc2cnccn2c1Nc1ccc2c(c1)OCCO2` [CR-78]: 5.4.
For `Fc1cccc(F)c1-c1nc2cnccn2c1Nc1ccc2c(c1)OCCO2` [CR-92], the pKi is 6.6.
With `COc1cccc2nc(-c3c(F)ccc(OC[18F])c3Cl)c(Nc3ccc4c(c3)OCCO4)n12` [CR-134], the Ki is 1 nM.
Consider `COc1cc(O)ccc1-c1nc2ncccn2c1Nc1ccc2c(c1)OCCO2` [CR-111], for which the pKi is on record as 6.3.
Same read-out and setting: with `CCc1cccc2nc(-c3c(F)cccc3Cl)c(Nc3ccc4c(c3)OCCO4)n12` [CR-45] the figure was 7.4.
Still for that read-out and setting: the same measure for `COc1cccc2nc(-c3c(F)cncc3F)c(Nc3ccc4c(c3)OCCO4)n12` [CR-34]: 7.8; for `COc1cc(-c2nc3cc(C)ccn3c2Nc2ccc3c(c2)OCO3)cc(F)c1O` [CR-130]: 6.1; for `Cc1ccn2c(Nc3ccc4c(c3)OCCO4)c(-c3c(F)cccc3Cl)nc2c1` [CR-55]: 7.3.
Regarding `Fc1ccc(-c2nc3ccccn3c2Nc2ccc3c(c2)OCCO3)cn1` [CR-110], the pKi turned out to be 5.7.
Same read-out and setting: the same measure for `Clc1cccc(Cl)c1-c1nc2cnccn2c1Nc1ccc2c(c1)OCCO2` [CR-94]: 6.6; for `Cc1cccc2nc(-c3c(F)cc(C#N)cc3F)c(Nc3ccc4c(c3)OCCO4)n12` [CR-53]: 7.3; for `Fc1ccc(-c2nc3cnccn3c2Nc2ccc3c(c2)OCCO3)cn1` [CR-89]: 5.5.
On the same count and under the same terms, with `Oc1cc(F)c(-c2nc3cccc(OCCF)n3c2Nc2ccc3c(c2)OCCO3)c(F)c1` [CR-6] the figure was 7.6.
`COc1cc(-c2nc3ccncn3c2Nc2ccc3c(c2)OCCO3)ccc1O` [CR-98] yielded a pKi of 6.5.
Still for that read-out and setting: the same measure for `COc1cccc2nc(-c3c(F)ccc(OCF)c3F)c(Nc3ccc4c(c3)OCCO4)n12` [CR-1]: 9.5; for `COc1cc(-c2nc3cnccn3c2Nc2ccc3c(c2)OCCO3)ccc1O` [CR-75]: 6.8; for `COc1cc(O)ccc1-c1nc2cc(C)ccn2c1Nc1ccc2c(c1)OCCO2` [CR-107]: 6.4.
On the same count and under the same terms, with `COc1cccc2nc(-c3c(Cl)cccc3Cl)c(Nc3ccc4c(c3)OCCO4)n12` [CR-18] the figure was 8.4.
Turning to `Cc1ccc2nc(-c3c(Cl)cccc3Cl)c(Nc3ccc4c(c3)OCCO4)n2c1` [CR-39], the pKi came to 7.6.

These data come from US20110206607A1, “IMIDAZOL (1,2-A)PYRIDINES AND RELATED COMPOUNDS WITH ACTIVITY AT CANNABINOID CB2 RECEPTORS” (priority 2007, published 2011).
